The text below walks through data of patent US12234221B2, “Pyridine carboxamide compounds for inhibiting NAV1.8” (Lieber Institute, Inc., priority 2018, dated 2025).

This assay deals with T1, human Nav1.8 (hNav1.8) ion channel (Homo sapiens, UniProt Q9Y5Y9).
T1 construct: expressed in transfected cells; host or cells: HEK293
As to the kind of experiment: Nav1.8 channel inhibition, estimated IC50 (one or more of: fluorescence inhibition assay, PatchXpress, IonFlux HT automated patch clamp). In kind it is cell-based. Conditions: HEK293 cells stably expressing hNav1.8; method used per compound not stated; read-out: Activity range (estimated IC50). The protocol: The ability of pyridine carboxamide derivatives exemplified above to inhibit the Nav1.8 channel was determined using one or more of the methods described below.
HEK Nav1.8 β1/β2 Stably Expressing Cell Line
A HEK293 cell line stably expressing the human Nav1.8 (hNav1.8) ion channel with β1/β2 subunits was constructed. The cell line is suitable for IC50 determination in fluorescence and electrophysiological based assays. It is also suitable to form mechanism of action pharmacology studies in electrophysiological assays. HEK293 Nav 1.8 cells are grown as adherent monolayers in DMEM/high glucose media, 10% fetal bovine serum, Na pyruvate (2 mM), Hepes (10 mM) with selection agents G418 (400 mg/L) and puromycin (0.5 mg/L) at 37 degrees C., 10% CO2.
Nav 1.8 Fluorescence Inhibition Assay
Compounds were made up to or supplied as a 10-mM stock solution using DMSO as the vehicle. Concentration-response curves were generated using a Matrix multichannel pipettor. Compound source plates were made by diluting 10 mM compound stocks to create 500 μM (100×) solutions in DMSO in 96-well v-bottom plates. Compounds were then serially diluted in 100% DMSO to generate a 5 point, 4-fold dilution scheme dose response curve. 2 μL of the 100× dose response curves was then added to preincubation and stimulation assay plates. 100 μL of pre-incubation buffer and 200 μL of stimulation buffer were then added to the plates resulting in a final assay test concentration range of 5 μM to 0.02 μM with a final DMSO concentration of 1%.
On the day of assay, plates were washed to remove cell culture media using 2K EBSS buffer (135 mM NaCl, 2 mM KCl, 5 mM Glucose, 2 mM CaCl2), 1 mM MgCl2, 10 mM HEPES, pH 7.4). The Na-sensitive fluorescent dye, Asante Natrium Green-2 (ANG-2) is incubated for 60 min to allow equilibration and then washed with 2K EBSS. Plates are the transferred to a fluorescence plate reader (FLIPR™, Molecular Devices) for fluorescence measurement using an excitation wavelength of 490 nm and an emission wavelength of 565 nm. Compounds are pre-incubated at for 5 min at final test concentration in the presence of ouabain (30 μM) to inhibit Na+ efflux through Na+/K+ exchanger. Following the pre-incubation phase, hNav1.8 channels are stimulated with 10 μM of the pyrethroid deltamethrin to prevent channel inactivation. The assay was run for 15 min with vehicle and 30 μM tetracaine serving as negative and positive controls, respectively. The peak change in fluorescence relative to negative and positive control wells was calculated and fit with a logistic equation to determine IC50.
PatchXpress Nav 1.8 Inhibition Assay
HEK-Nav1.8 β1/β2 cells were recorded in whole cell patch-clamp using the PatchXpress automated patch clamp platforms (Molecular Devices). Cells suspensions were obtained by trypsinization of adherent monolayers, followed by gentle rocking for minimally 30 min. Compounds were prepared from 10 mM DMSO stocks.
Nav1.8 channel variants were evaluated using Protocol 1 (FIG. 2) in which cells were initially voltage clamped at a holding potential of −100 mV to maintain Nav1.8 in a closed resting state. After current amplitude becomes stable, the mid-point voltage of steady state inactivation was determined for each cell using a series of 5 sec conditioning steps to increasingly depolarized voltages (−100 to 0 mV) The holding potential was then reset to a voltage that produces ˜50% inactivation (Vhalf−set automatically via PatchXpress scripts) so that closed and inactivated channel inhibition can be assessed. Protocol 1 was run at a frequency of 0.1 Hz until current amplitude is steady (automatically determined by PatchXpress scripts). The effect of test reagent on Nav current amplitude was monitored using custom PatchXpress stability scripts which determines the timing of compound addition and washout. Data were processed and analyzed using DataXpress 2.0 (Molecular Devices). […]

Some results are limits rather than exact numbers.

T1 sequence (Q9Y5Y9 whole entry): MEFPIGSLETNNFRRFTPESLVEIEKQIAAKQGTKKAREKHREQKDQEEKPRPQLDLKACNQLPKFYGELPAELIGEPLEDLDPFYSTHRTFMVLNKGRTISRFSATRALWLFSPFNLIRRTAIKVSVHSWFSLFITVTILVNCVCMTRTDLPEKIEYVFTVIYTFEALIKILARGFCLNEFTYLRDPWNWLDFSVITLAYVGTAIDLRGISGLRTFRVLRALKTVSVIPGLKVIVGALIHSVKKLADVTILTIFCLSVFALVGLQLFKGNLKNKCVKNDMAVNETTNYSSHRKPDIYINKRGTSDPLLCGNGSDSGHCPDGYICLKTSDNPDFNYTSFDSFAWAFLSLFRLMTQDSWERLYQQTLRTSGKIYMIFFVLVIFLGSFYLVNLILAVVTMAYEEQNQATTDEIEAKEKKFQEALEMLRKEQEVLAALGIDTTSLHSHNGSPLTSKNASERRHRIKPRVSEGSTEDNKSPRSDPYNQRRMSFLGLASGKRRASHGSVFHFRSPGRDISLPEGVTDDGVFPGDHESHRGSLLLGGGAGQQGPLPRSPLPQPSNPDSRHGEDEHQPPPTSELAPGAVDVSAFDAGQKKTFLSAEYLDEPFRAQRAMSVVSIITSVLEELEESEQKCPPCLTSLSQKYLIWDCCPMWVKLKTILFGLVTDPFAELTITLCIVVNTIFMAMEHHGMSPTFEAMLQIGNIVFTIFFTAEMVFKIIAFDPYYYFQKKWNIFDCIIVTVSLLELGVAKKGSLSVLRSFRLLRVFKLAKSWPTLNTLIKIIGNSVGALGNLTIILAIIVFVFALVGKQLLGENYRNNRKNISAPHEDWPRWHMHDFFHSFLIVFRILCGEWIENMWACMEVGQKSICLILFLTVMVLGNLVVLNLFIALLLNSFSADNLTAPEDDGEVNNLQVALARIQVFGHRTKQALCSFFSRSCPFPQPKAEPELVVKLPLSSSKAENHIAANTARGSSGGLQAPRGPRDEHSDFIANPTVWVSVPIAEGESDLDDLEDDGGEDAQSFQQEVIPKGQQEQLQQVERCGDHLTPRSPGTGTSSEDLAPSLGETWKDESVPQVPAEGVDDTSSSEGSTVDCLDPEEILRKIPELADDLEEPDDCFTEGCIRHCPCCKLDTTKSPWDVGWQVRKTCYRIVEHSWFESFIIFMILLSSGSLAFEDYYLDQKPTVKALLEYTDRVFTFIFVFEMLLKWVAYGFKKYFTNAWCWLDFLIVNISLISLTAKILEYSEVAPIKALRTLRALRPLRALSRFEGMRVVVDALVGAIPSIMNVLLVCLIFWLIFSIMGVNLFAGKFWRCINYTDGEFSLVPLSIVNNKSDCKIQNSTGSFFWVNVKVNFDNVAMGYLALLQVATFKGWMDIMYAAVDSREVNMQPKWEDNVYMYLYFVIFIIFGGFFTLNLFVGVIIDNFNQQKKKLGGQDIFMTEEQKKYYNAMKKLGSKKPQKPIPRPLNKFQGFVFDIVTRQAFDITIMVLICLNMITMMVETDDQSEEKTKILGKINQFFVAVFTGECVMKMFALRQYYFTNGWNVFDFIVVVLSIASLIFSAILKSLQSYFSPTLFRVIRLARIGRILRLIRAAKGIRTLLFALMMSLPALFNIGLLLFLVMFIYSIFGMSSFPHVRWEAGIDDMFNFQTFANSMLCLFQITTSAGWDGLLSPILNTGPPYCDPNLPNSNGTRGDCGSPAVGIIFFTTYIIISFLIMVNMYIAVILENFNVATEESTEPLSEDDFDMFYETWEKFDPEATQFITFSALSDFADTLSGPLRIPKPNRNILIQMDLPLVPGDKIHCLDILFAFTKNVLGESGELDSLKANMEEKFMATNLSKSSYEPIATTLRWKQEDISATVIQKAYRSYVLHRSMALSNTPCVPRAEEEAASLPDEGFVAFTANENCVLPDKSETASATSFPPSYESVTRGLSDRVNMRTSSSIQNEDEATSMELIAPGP

By IC50 is commonly meant the concentration that gives 50% inhibition. With `CS(=O)(=O)c1cccc(NC(=O)c2cc(C(F)(F)F)cnc2Oc2cc(Cl)cc(Cl)c2)c1` [Example 56, 2-(3,5-dichlorophenoxy)-N-(3-methylsulfonyl-phenyl)-5-(trifluoromethyl)pyridine-3-carboxamide], the IC50 is more than 1000 nM.

With `CS(=O)(=O)c1cccc(NC(=O)c2cc(C(F)(F)F)cnc2Oc2ccc(C(F)(F)F)nc2)c1` [Example 57, N-(3-methylsulfonyl-phenyl)-5-(trifluoromethyl)-2-[[6-(trifluoromethyl)-3-pyridyl]oxy]pyridine-3-carboxamide], the IC50 was more than 1000 nM.

For `CS(=O)(=O)c1cccc(NC(=O)c2cc(C(F)(F)F)cnc2Oc2cccc3scnc23)c1` [Example 58, 2-(1,3-benzothiazol-4-yloxy)-N-(3-methylsulfonyl-phenyl)-5-(trifluoromethyl)pyridine-3-carboxamide], the IC50 is more than 1000 nM.

Take `CS(=N)(=O)c1cccc(NC(=O)c2cc(C(F)(F)F)cnc2Oc2ccc(OC(F)F)cc2)c1` (centres unmarked) [Example 59, 2-[4-(difluoromethoxy)phenoxy]-N-[3-(methylsulfonimidoyl)phenyl]-5-(trifluoromethyl)pyridine-3-carboxamide]: the IC50 was less than 500 nM.

`CS(=N)(=O)c1cccc(NC(=O)c2cc(C(F)(F)F)cnc2Oc2ccc(F)cc2Cl)c1` (centres unmarked) [Example 60, 2-(2-chloro-4-fluoro-phenoxy)-N-[3-(methylsulfonimidoyl)phenyl]-5-(trifluoromethyl)pyridine-3-carboxamide]: the 50% inhibitory concentration (IC50) was less than 500 nM.

As for `COc1ccc(Oc2ncc(C(F)(F)F)cc2C(=O)Nc2cccc(S(C)(=N)=O)c2)c(Cl)c1` (centres unmarked) [Example 61, 2-(2-chloro-4-methoxy-phenoxy)-N-[3-(methylsulfonimidoyl)phenyl]-5-(trifluoromethyl)pyridine-3-carboxamide], the IC50 is less than 500 nM.

Take `CS(=N)(=O)c1cccc(NC(=O)c2cc(C(F)(F)F)cnc2Oc2ccccc2Cl)c1` (centres unmarked) [Example 62, 2-(2-chlorophenoxy)-N-[3-(methylsulfonimidoyl)phenyl]-5-(trifluoromethyl)pyridine-3-carboxamide]: the IC50 was less than 500 nM.

With `O=C(Nc1ccnnc1)c1cc(C(F)(F)F)cnc1Oc1ccc(Cl)cc1Cl` [Example 63, 2-(2,4-dichlorophenoxy)-N-pyridazin-4-yl-5-(trifluoromethyl)pyridine-3-carboxamide], the IC50 was 500 to 1000 nM.

For `O=C(Nc1ccnnc1)c1cc(C(F)(F)F)cnc1Oc1ccc(OC(F)F)cc1` [Example 64, 2-[4-(difluoromethoxy)phenoxy]-N-pyridazin-4-yl-5-(trifluoromethyl)pyridine-3-carboxamide], the IC50 was more than 1000 nM.

Consider `COc1ccc(Oc2ncc(C(F)(F)F)cc2C(=O)Nc2ccnnc2)c(Cl)c1` [Example 65, 2-(2-chloro-4-methoxy-phenoxy)-N-pyridazin-4-yl-5-(trifluoromethyl)pyridine-3-carboxamide], for which the half-inhibitory concentration (IC50) was more than 1000 nM.

For `COc1cc(F)ccc1Oc1nc(C(F)(F)F)ccc1C(=O)Nc1cccc(S(C)(=O)=O)c1` [Example 66, 2-(4-fluoro-2-methoxy-phenoxy)-N-(3-methylsulfonylphenyl)-6-(trifluoromethyl)pyridine-3-carboxamide], the IC50 was less than 500 nM.

Turning to `COc1cc(F)ccc1Oc1cc(C(F)(F)F)ncc1C(=O)Nc1cccc(S(C)(=O)=O)c1` [Example 67, 4-(4-fluoro-2-methoxy-phenoxy)-N-(3-methylsulfonylphenyl)-6-(trifluoromethyl)pyridine-3-carboxamide], the IC50 is less than 500 nM.

`COc1cc(F)ccc1Oc1cc(C(F)(F)F)ncc1C(=O)Nc1cccc([S+](C)[O-])c1` (centres unmarked) [Example 68, 4-(4-fluoro-2-methoxy-phenoxy)-N-(3-methylsulfinylphenyl)-6-(trifluoromethyl)pyridine-3-carboxamide]: the IC50 was less than 500 nM.

In the case of `COc1cc(F)ccc1Oc1cc(C(F)(F)F)ncc1C(=O)Nc1cc(S(C)(=O)=O)ccc1F` [Example 69, 4-(4-fluoro-2-methoxy-phenoxy)-N-(2-fluoro-5-methylsulfonyl-phenyl)-6-(trifluoromethyl)pyridine-3-carboxamide], the IC50 was less than 500 nM.
